Results as given in US5278300A, “4,6-o-hydroxyphosphoryl-glucosamine derivatives” (priority 1990, dated 1994).
Read-outs that look alike come from different tables or passages of the source.

Experiments:
[1] = system: colony stimulating factor (CSF); test: Colony stimulating factor (CSF)-inducing activity; format: in vivo, C57BL mice; conditions: 5 μg caudal vein, serum after six hours, colonies after seven days
Experimental: By utilizing the following experimental protocol, in vivo colony stimulating factor (CSF) inducing activity of the compounds according to the present invention was evaluated [see Immunology, 21, 427-436. (1971)].
5 μg of the present compounds according to the present invention were administered to the caudal vein of C57BL mice (male, 8-10-weeks old). After six hours, the blood was sampled from the plexus venous orbitalis of said mice. This blood was allowed to stand at 4° C. for two hours for sufficient coagulation, and then centrifuged at 1500×g. The resultant supernatant solution was collected for use as a CSF-containing serum sample.
Separately, from the femora of mice which were the same series as the mice used for sampling the serum, the bone marrow cells were sampled. Specifically, both ends of the femora isolated in an aseptic manner were cut, and an injection needle was inserted into one end to aspirate the bone marrow cells into a culture solution (DMEM). The obtained cell suspension was sufficiently stirred, washed with the culture solution several times, and suspended in the culture solution again.
Next, the cell culture prepared as described was adjusted to a final concentration of 10^5 cells/ml by utilizing a medium (DMEM) containing 0.3% agar, 25% horse serum, and 50 μM 2-mercaptoethanol. To this solution, 0.1 ml of said serum sample which had been diluted to 1/3 with said DMEM medium was added, and the obtained solution was transferred to a culture plate of 35 mm diameter. Then, the resultant culture solution was cultured under 7% CO2 at 37° C. for seven days to form colonies. Colonies as containing at least 20 unseparated cells were counted, and the numbers thus obtained were taken as indicating the CSF inducing activity of the compounds according to the present invention.

[2] = system: spleen cells; test: Mitogen activity (3H-thymidine incorporation in spleen cells); format: cell-based, C3H/HeN mice; conditions: 48 hours culture, given concentration
Experimental: The mitogen activity of the compounds according to the present invention was evaluated by utilizing the following experimental system [see Eur. J. Immunol., 14, 109-114. (1984)].
The spleens of C3H/HeN mice (males, 6-10-weeks old) were isolated in an aseptic manner. The spleen tissue was loosened in Dulbecco's modified Eagle medium (DMEM) and then subjected to a stainless mesh in order to filter the spleen cells. Next, erythrocytes contained in the collected cells were hemolyzed, and the obtained cells were suspended in RPMI 1640 medium containing 5% FBS for subsequent use.
Evaluation of mitogenic activity of the compounds according to the present invention was conducted by measuring the amount of ^3 H-thymidine incorporated into the cells during culturing of the cells which were treated with the compounds according to the present invention. First, the spleen cells were transferred to a 96-well plate at 5×10^5 cells/well (100 μl). To each well, the compound according to the present invention at a given concentration (100 μl) was added, and the obtained solution in each well was cultured under 5% CO2 at 37° C. for 48 hours. After that, ^3 H-thymidine was added at 1 μCi/well (50 μl), followed by culturing for four hours. The obtained cells were washed with phosphate buffered saline (PBS), and the amount of ^3 H-thymidine incorporated into the cells (the amount of radioactivity) was determined using a liquid scintillation counter. The result was shown by calculating the following Stimulation Index: [formula]

[3] = system: TNF; test: TNF-producing activity; format: in vivo, ICR mice; conditions: 10 μg/mice i.v., serum at 90 minutes, Corynebacterium parvum-primed, L929 cytotoxicity assay
Experimental: TNF-producing activity was evaluated utilizing the following experimental system.
The first stimulating agent, 5% Corynebacterium parvum suspension (0.2 ml physiological saline solution), was intravenously administered to ICR mice (female, 6-7 week-aged). Nine days later, the second stimulating agent, the compound of the present invention, was intravenously administered to the same mice at 10 μg/mice. In 90 minutes, 0.5-1 ml of blood was taken from the retro orbital plexus. The obtained blood was allowed to clot at room temperature for five to six hours, and centrifuged at 7200×g for five minutes to separate the serum. The obtained serum was incubated at 56° C. for 30 minutes for inactivation before use in the following experiment.
TNF activity in the serum was measured via a cytotoxicity assay employing L929 cells. […] After 48 hours incubation at 37° C., the viable cells were fixed with methanol. These cells were then stained with 0.2% crystal violet, and the dye was extracted with 1% SDS (sodium dodecyl sulphate). Next, the absorbance at 550 nm was measured. Finally, the cytotoxicity ratio (%) was calculated according to the following formula, and the reciprocal of the dilution of the serum showing 50% cytotoxicity was determined for the TNF titer in the serum (U/ml).
[OD550 (medium alone) - OD550 (serum obtained by
administering compounds of the invention)] ×

[4] = system: neutrophils; test: O2^- production stimulating activity in neutrophils; format: cell-based, C3H/HeN mice; conditions: 10 μg/ml, 37° C., 60 minutes, FMLP 0.1 μM; for activation at 10 µg/mL: Mus musculus, Neutrophil, 1 h, read-out: Stimulation (%), O2^- production stimulating activity
Experimental: O2^- - production stimulating activity in neutrophils was evaluated utilizing the following experimental system [see J. Exp. Med., 160, 1656-1671. (1984)]. To the peritoneal cavity of C3H/HeN mice (male, 8-9 weeks old), physiological saline containing 0.2% (w/v) casein was administered. Three hours later, peritoneal exudate cells (90% or more of which are neutrophils) were collected. These cells (1.7×10^6 cells/ml/tube) were incubated in the presence of the compound (10 μg/ml) according to the present invention at 37° C. for 60 minutes. After addition of 80 μM of cytochrome C and 0.1 μM of formyl-methionyl-leucylphenylalanine (FMLP), the mixture was incubated in the presence of or in the absence of superoxide dismutase (SOD) at 37° C. for 10 minutes. Then, SOD-inhibitable cytochrome C reduction was estimated from the difference between the absorbances at 550 nm and 541.7 nm, and from the molar absorption coefficient (16.5×10^3).O2^- production-stimulating activity in terms of Stimulation % was calculated according to the following formula: [formula]

[5] = Lethal toxicity in galactosamine-sensitized mice; format: in vivo, C57BL mice; conditions: galactosamine-sensitized mice; intravenous; D-galactosamine/HCl 10 mg/mouse intraperitoneally; observed to seventh day; read-out: LD50 (galactosamine load)
Experimental: (§1) Lethal toxicity in galactosamine-sensitized mice was evaluated by utilizing the following experimental system [see J. Biochem., 98, 395-406. (1985)].
(§2) To C57BL mice (male, 7-weeks old), 10 mg/mouse of D-galactosamine/HCl was intraperitoneally administered. Immediately after that, the compound of this invention was intravenously administered. After these administrations, the general condition of the mice were observed every one hour for seven hours, and every day from the following day to the seventh day.

[6] = system: galactosamine-sensitized mice; test: Lethal toxicity in galactosamine-sensitized mice; format: in vivo, C57BL mice; conditions: intravenous; D-galactosamine/HCl 10 mg/mouse intraperitoneally; observed to seventh day; 10080 min
Experimental: as §1, §2

| Compound | The Number of Colony Formed/The number of Bone Marrow Cells (10^5) ([1]; Experiment 1) | The Number of Colony Formed/The number of Bone Marrow Cells (10^5) ([1]; Experiment 2) | Stimulation Index ([2]; Experiment 1) | Stimulation Index ([2]; Experiment 2) | The Amount of TNF in the Serum ([3]; Experiment 1) [U/ml] | The Amount of TNF in the Serum ([3]; Experiment 2) [U/ml] | Stimulation (%), O2^- production stimulating activity ([4]; Experiment 2) [%] | activation at 10 µg/mL ([4]; Experiment 1) [%] | LD50 at 168 h [5] [mg/kg] | activation at 10 µg/mL ([4]; Experiment 2) [%] | LD50 (galactosamine load) [6] [mg/kg] |
| --- | --- | --- | --- | --- | --- | --- | --- | --- | --- | --- | --- |
| CCCCCCCCCCCCCC(=O)O[C@H](CCCCCCCCCCC)CC(=O)O[C@H]1[C@H](OP(=O)(O)O)[C@@H](CO)OC(O)[C@@H]1NC(=O)C[C@H](O)CCCCCCCCCCC (stereo partly drawn) [Control, 2-deoxy-2[(3R)-3-hydroxytetradecanamide]-4-O-phosphono-3-O-[(3R)-3-tetradecanoyloxytetradecanoyl]-D-glucopyranose] | 89 Colony Formed/10^5 Bone Marrow | 53 Colony Formed/10^5 Bone Marrow | 15.8 | 8.4 | 158000 | 80000 | 60 | 60 | 0.003 | – | – |
| CCCCCCCCCCCCCC(=O)O[C@H](CCCCCCCCCCCC)C(=O)O[C@H]1[C@@H]2OP(=O)(O)OC[C@H]2OC[C@@H]1NC(=O)C[C@H](O)CCCCCCCCCCC [Example 1, 1,5-Anhydro-2-deoxy-4,6-O-hydroxyphosphoryl-2-{(3R)-3-hydroxytetradecanamido}-3-O-{(2R)-2-tetradecanoyloxytetradecanoyl}-D-glucitol] | 153 Colony Formed/10^5 Bone Marrow | – | 32.1 | – | 133000 | – | – | 55 | 0.0313 | – | – |
| CCCCCCCCCCCCCCC(OC(=O)CCCCCCCCCCC)C(=O)O[C@H]1[C@@H]2OP(=O)(O)OC[C@H]2OC[C@@H]1NC(=O)C[C@H](O)CCCCCCCCC (stereo partly drawn) [Example 2, 1,5-Anhydro-2-deoxy-3-O-{(2RS)-2-dodecanoyloxyhexadecanoyl}-2-{(3R)-3-hydroxydodecanamido}-4,6-O-hydroxyphosphoryl-D-glucitol] | – | – | – | – | – | 102000 | – | – | – | – | – |
| CCCCCCCCCCCCCCC(CCCCCCCCCCCC)C(=O)O[C@H]1[C@@H]2OP(=O)(O)OC[C@H]2OC[C@@H]1NC(=O)C[C@H](O)CCCCCCCCCCC (stereo partly drawn) [Example 4, 1,5-Anhydro-2-deoxy-3-O-{(2RS)-2-dodecylhexadecanoyl}-4,6-O-hydroxyphosphoryl-2-{(3R)-3-hydroxytetradecanamido}-D-glucitol] | – | 66 Colony Formed/10^5 Bone Marrow | – | 20.7 | – | – | – | – | 0.0711 | 55 | – |
| CCCCCCCCCCCCCC(=O)O[C@H](CCCCCCCCCCC)CC(=O)O[C@@H]1[C@@H](NC(=O)C[C@@H](CCCCCCCCCCC)OC(=O)CCCCCCCCCCC)[C@H](OC[C@H]2O[C@H](OP(=O)(O)O)[C@H](NC(=O)C[C@H](O)CCCCCCCCCCC)[C@@H](OC(=O)C[C@H](O)CCCCCCCCCCC)[C@@H]2O)O[C@H](CO)[C@H]1OP(=O)(O)O [Lipid A] | – | – | – | – | – | – | – | – | – | – | 0.0003 |
